Test results published in patent US12247018B2, “Aryl-n-aryl derivatives for treating a RNA virus infection” (ABIVAX, priority 2018, dated 2025).

test system: RSV A2; experiment: RSV inhibition (cytopathic effect) in HEp-2 cells using Viral ToxGlo assay; format: cell-based; details: human respiratory syncytial virus; RSV A2, HEp-2 cells, MOI 0.5, 72 h p.i.
Method: Protocol for Screening Antiviral Compounds for RSV Inhibition and Cytotoxicity Using Viral ToxGlo Assay
HEp-2 cells were maintained in Eagle's minimum essential medium (EMEM) with Earle's BSS adjusted to contain 2 mM L-glutamine, 10% fetal bovine serum, 100 U/ml penicillin and 100 μg/ml streptomycin. For the purposes of the screening assay they were grown to 90% confluency, trypsinized and recovered. The trypsin was neutralised with cell culture media and cells were centrifuged at 150×g for 5 minutes before discarding the supernatant and resuspending cell pellet in assay media (EMEM with Earle's BSS adjusted to contain 2 mM L-glutamine, 2% fetal bovine serum and 100 U/ml penicillin and 100 μg/ml streptomycin). The cells were seeded into white clear-bottomed cell culture plates at a density of 1.5×10^4 cells/well in 50 μl and 4×10^3 cells/well in 25 μl for 96 well plates and 384 well plates respectively. For the media/background control column assay media only was added. Cell plates were placed in a humid chamber and incubated overnight at 37° C./5% CO2. After overnight incubation cells were checked for confluency and healthy appearance.
Test articles were made up at 10× test concentration in a maximum DMSO concentration of 10% (final assay concentration maximal 1% DMSO) and added to the cell plates in volumes of 10 μl for 96 well plates and 5 μl for 384 well plates. For cell control and virus control wells the test article solvent only was added. Virus or assay media for cytotoxicity test wells and media/cell control wells was added immediately after test articles at an MOI of 0.5, 40 or 20 μl for 96 and 384 well plates respectively. Virus suspension was prepared by thawing RSV A2 frozen stocks and diluting to the required concentration of plaque forming units in assay media on ice.
Cell plates were further incubated inside a humid chamber for 72 h p.i at 37° C./5% CO2. After the incubation period cells were observed under the microscope to check for characteristic cytopathic effect in virus control wells and healthy cells in the cell control wells. After plates were adjusted to room temperature 20/40 μl Viral ToxGlo (Promega) was added to each well of the 384/96 well cell plates. Plates were incubated at room temperature, protected from light on a plate rocker for 20 minutes before measuring the luminescence on a spectrophotometer (Biotek Synergy HTX).

| SMILES | EC50 [nM] |
| --- | --- |
| O=C(N=C1NCCCN1)c1ccc(Nc2cccc(C(=O)NC3CC3)c2)c(C2CC2)c1 [compound 114, 3-cyclopropyl-4-{[3-(cyclopropylcarbamoyl)phenyl]amino}-N-(1,3-diazinan-2-ylidene)benzamide] | 110 |
| O=C(N=C1NCCCN1)c1ccc(Nc2cccc(OCCCCC3CCCCC3)c2)c(C2CC2)c1 [compound 140, 4-{[3-(4-cyclohexylbutoxy)phenyl]amino}-3-cyclopropyl-N-(1,3-diazinan-2-ylidene)benzamide] | 368 |
| CC(C)CNC(=O)c1cccc(Nc2ccc(C(=O)N=C3NCCCN3)cc2C2CC2)c1 [compound 131, 3-cyclopropyl-N-(1,3-diazinan-2-ylidene)-4-({3-[(2-methylpropyl)carbamoyl]phenyl}amino)benzamide] | 246 |
| O=C(N=C1NCCCN1)c1ccc(Nc2cccc(C(=O)N3CC4CC4C3)c2)c(C2CC2)c1 (stereo not shown) [compound 136, 4-[(3-{3-azabicyclo[3.1.0]hexane-3-carbonyl}phenyl)amino]-3-cyclopropyl-N-(1,3-diazinan-2-ylidene)benzamide] | 298 |
| Cc1c(Nc2ccc(C(=O)N=C3NCCCN3)cc2C2CC2)cccc1C(=O)NCCC(C)C [compound 96, 3-cyclopropyl-N-(1,3-diazinan-2-ylidene)-4-({2-methyl-3-[(3-methylbutyl)carbamoyl]phenyl}amino)benzamide] | 20 |
| O=C(N=C1NCCCN1)c1ccc(Nc2ccccc2S(=O)(=O)CCCC2CCCCC2)c(C2CC2)c1 [compound 106, 4-{[2-(3-cyclohexylpropanesulfonyl)phenyl]amino}-3-cyclopropyl-N-(1,3-diazinan-2-ylidene)benzamide] | 67 |
| O=C(N=C1NCCCN1)c1ccc(Nc2cccc(C(=O)NC3CCOCC3)c2)c(C2CC2)c1 [compound 157, 3-cyclopropyl-N-(1,3-diazinan-2-ylidene)-4-({3-[(oxan-4-yl)carbamoyl]phenyl}amino)benzamide] | 1030 |
| CC(C)CCCCNC(=O)c1cccc(Nc2ccc(C(=O)N=C3NCCCN3)cc2C2CC2)c1 [compound 107, 3-cyclopropyl-N-(1,3-diazinan-2-ylidene)-4-({3-[(5-methylhexyl)carbamoyl]phenyl}amino)benzamide] | 68 |
| O=C(N=C1NCCCN1)c1ccc(Nc2cccc(OCC(F)(F)F)c2)c(C2CC2)c1 [compound 124, 3-cyclopropyl-N-(1,3-diazinan-2-ylidene)-4-{[3-(2,2,2-trifluoroethoxy)phenyl]amino}benzamide] | 150 |
| O=C1CCN/C(=N\C(=O)c2ccc(Nc3cccc(OCC4COCCO4)c3)c(C3CC3)c2)N1 (stereo not shown) [compound 161, 3-cyclopropyl-4-({3-[(1,4-dioxan-2-yl)methoxy]phenyl}amino)-N-[(2E)-4-oxo-1,3-diazinan-2-ylidene]benzamide] | 1310 |
| O=C(N=C1NCCCN1)c1ccc(Nc2cccc(C(=O)NC3CCOC3)c2)c(C2CC2)c1 (stereo not shown) [compound 155, 3-cyclopropyl-N-(1,3-diazinan-2-ylidene)-4-({3-[(oxolan-3-yl)carbamoyl]phenyl}amino)benzamide] | 949 |
| CC1COCCN1C(=O)c1cccc(Nc2ccc(C(=O)/N=C3\NCCC(=O)N3)cc2C2CC2)c1Cl (stereo not shown) [compound 91, 4-{[2-chloro-3-(3-methylmorpholine-4-carbonyl)phenyl]amino}-3-cyclopropyl-N-[(2E)-4-oxo-1,3-diazinan-2-ylidene]benzamide] | 2 |
| O=C(N=C1NCCCN1)c1ccc(Nc2cccc(C(=O)NC3CCCCC3)c2)c(C2CC2)c1 [compound 117, 4-{[3-(cyclohexylcarbamoyl)phenyl]amino}-3-cyclopropyl-N-(1,3-diazinan-2-ylidene)benzamide] | 125 |
| O=C1CCN/C(=N\C(=O)c2ccc(Nc3cccc(OCC4COCCO4)c3Cl)c(C3CC3)c2)N1 (stereo not shown) [compound 93, 4-({2-chloro-3-[(1,4-dioxan-2-yl)methoxy]phenyl}amino)-3-cyclopropyl-N-[(2E)-4-oxo-1,3-diazinan-2-ylidene]benzamide] | 13 |
| CC(C)NC(=O)c1cccc(Nc2ccc(C(=O)/N=C3\NCCC(=O)N3)cc2C2CC2)c1 [compound 120, 3-cyclopropyl-N-[(2E)-4-oxo-1,3-diazinan-2-ylidene]-4-({3-[(propan-2-yl)carbamoyl]phenyl}amino)benzamide] | 136 |
| O=C1CCN/C(=N\C(=O)c2ccc(Nc3cccc(C(=O)NC4CC4)c3)c(C3CC3)c2)N1 [compound 145, 3-cyclopropyl-4-{[3-(cyclopropylcarbamoyl)phenyl]amino}-N-[(2E)-4-oxo-1,3-diazinan-2-ylidene]benzamide] | 421 |

| SMILES | EC50 [nM] |
| --- | --- |
| Cc1cc(C(=O)N=C2NCCCN2)ccc1Nc1cccc(NC(=O)CCC2CCCCC2)c1 [compound 153, 4-{[3-(3-cyclohexylpropanamido)phenyl]amino}-N-(1,3-diazinan-2-ylidene)-3-methylbenzamide] | 704 |
| O=C(N=C1NCCCN1)c1ccc(Nc2cccc(C(=O)NCC(F)(F)F)c2)c(C2CC2)c1 [compound 133, 3-cyclopropyl-N-(1,3-diazinan-2-ylidene)-4-({3-[(2,2,2-trifluoroethyl)carbamoyl]phenyl}amino)benzamide] | 261 |
| CC(C)C(=O)Nc1cccc(Nc2ccc(C(=O)/N=C3\NCCC(=O)N3)cc2C2CC2)c1C1CC1 [compound 122, 3-cyclopropyl-4-{[2-cyclopropyl-3-(2-methylpropanamido)phenyl]amino}-N-[(2E)-4-oxo-1,3-diazinan-2-ylidene]benzamide] | 141 |
| O=C(N=C1NCCCN1)c1ccc(Nc2ccnc(C(=O)NCCC3CCCCC3)c2)c(C2CC2)c1 [compound 138, N-(2-cyclohexylethyl)-4-({2-cyclopropyl-4-[(1,3-diazinan-2-ylidene)carbamoyl]phenyl}amino)pyridine-2-carboxamide] | 310 |
| CC(NC(=O)c1cccc(Nc2ccc(C(=O)N=C3NCCCN3)cc2C2CC2)c1)C(F)(F)F (stereo not shown) [compound 109, 3-cyclopropyl-N-(1,3-diazinan-2-ylidene)-4-({3-[(1,1,1-trifluoropropan-2-yl)carbamoyl]phenyl}amino)benzamide] | 79 |
| O=C(N=C1NCCCN1)c1ccc(Nc2cccc(C(=O)NC3COC3)c2)c(C2CC2)c1 [compound 166, 3-cyclopropyl-N-(1,3-diazinan-2-ylidene)-4-({3-[(oxetan-3-yl)carbamoyl]phenyl}amino)benzamide] | 2740 |
| O=C1CCN/C(=N\C(=O)c2ccc(Nc3cccc(OCC4CCOCC4)c3)c(C3CC3)c2)N1 [compound 146, 3-cyclopropyl-4-({3-[(oxan-4-yl)methoxy]phenyl}amino)-N-[(2E)-4-oxo-1,3-diazinan-2-ylidene]benzamide] | 439 |
| CC1CN(C(=O)c2cccc(Nc3ccc(C(=O)/N=C4\NCCC(=O)N4)cc3C3CC3)c2Cl)CCO1 (stereo not shown) [compound 92, 4-{[2-chloro-3-(2-methylmorpholine-4-carbonyl)phenyl]amino}-3-cyclopropyl-N-[(2E)-4-oxo-1,3-diazinan-2-ylidene]benzamide] | 2 |
| CC(C)OCCOc1cccc(Nc2ccc(C(=O)N=C3NCCCN3)cc2C2CC2)c1 [compound 139, 3-cyclopropyl-N-(1,3-diazinan-2-ylidene)-4-({3-[2-(propan-2-yloxy)ethoxy]phenyl}amino)benzamide] | 340 |
| O=C(N=C1NCCCN1)c1ccc(Nc2cccc(OC3COC3)c2)c(C2CC2)c1 [compound 144, 3-cyclopropyl-N-(1,3-diazinan-2-ylidene)-4-{[3-(oxetan-3-yloxy)phenyl]amino}benzamide] | 413 |
| O=C(N=C1NCCCN1)c1ccc(Nc2cccc(OC3CCC3)c2)c(C2CC2)c1 [compound 129, 4-[(3-cyclobutoxyphenyl)amino]-3-cyclopropyl-N-(1,3-diazinan-2-ylidene)benzamide] | 223 |
| O=C1CCN/C(=N\C(=O)c2ccc(Nc3cccc(OCCC4COCCO4)c3)c(C3CC3)c2)N1 (stereo not shown) [compound 150, 3-cyclopropyl-4-({3-[2-(1,4-dioxan-2-yl)ethoxy]phenyl}amino)-N-[(2E)-4-oxo-1,3-diazinan-2-ylidene]benzamide] | 512 |
| Cc1c(NC(=O)CCC(C)C)cccc1Nc1ccc(C(=O)N=C2NCCCN2)cc1C1CC1 [compound 128, 3-cyclopropyl-N-(1,3-diazinan-2-ylidene)-4-{[2-methyl-3-(4-methylpentanamido)phenyl]amino}benzamide] | 209 |
| CC(C)CCCOc1cccc(Nc2ccc(C(=O)N=C3NCCCN3)cc2C2CC2)c1 [compound 132, 3-cyclopropyl-N-(1,3-diazinan-2-ylidene)-4-({3-[(4-methylpentyl)oxy]phenyl}amino)benzamide] | 259 |
| O=C(N=C1NCCCN1)c1ccc(Nc2cccc(OCC3CCCCC3)c2)c(C2CC2)c1 [compound 127, 4-{[3-(cyclohexylmethoxy)phenyl]amino}-3-cyclopropyl-N-(1,3-diazinan-2-ylidene)benzamide] | 172 |
